From ChEMBL document CHEMBL3763132, “Discovery of highly selective CRAF inhibitors, 3-carboxamido-2H-indazole-6-arylamide: In silico FBLD design, synthesis and evaluation” (Bioorg Med Chem Lett, 2016) come the findings set out here.

The nature of experiment [1]: Antiproliferative activity against human A375P cells by MTT assay. Format: functional.
Experiment [2] in a line: Antiproliferative activity against human WM3629 cells by MTT/CellTiter 96 assay. In kind it is functional.
Experiment [3] concerns the target Aurora kinase A (Homo sapiens) (UniProt O14965). Briefly: Inhibition of human Aurora A at 10 uM.
The target of experiment [4] is Macrophage colony-stimulating factor 1 receptor (Homo sapiens) (UniProt P07333). Briefly: Inhibition of human FMS at 10 uM.
Experiment [5] has as its target RAC-alpha serine/threonine-protein kinase (Homo sapiens) (UniProt P31749). Briefly: Inhibition of human AKT1 at 10 uM.
For experiment [6], the target named is Vascular endothelial growth factor receptor 2 (Homo sapiens) (UniProt P35968). Briefly: Inhibition of human KDR at 10 uM.
The target in experiment [7] is Macrophage-stimulating protein receptor (Homo sapiens) (UniProt Q04912). Briefly: Inhibition of human RON at 10 uM.
Sequence of Macrophage-stimulating protein receptor (Homo sapiens) (Q04912 25-304 limits assumed): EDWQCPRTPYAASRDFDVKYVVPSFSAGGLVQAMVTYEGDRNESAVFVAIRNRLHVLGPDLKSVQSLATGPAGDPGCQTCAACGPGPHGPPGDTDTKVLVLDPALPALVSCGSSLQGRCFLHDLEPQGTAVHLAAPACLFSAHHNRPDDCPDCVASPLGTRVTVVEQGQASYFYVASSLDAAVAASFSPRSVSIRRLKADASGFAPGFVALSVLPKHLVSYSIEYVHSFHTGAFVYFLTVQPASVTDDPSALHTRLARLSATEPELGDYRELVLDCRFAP
Sequence of Macrophage-stimulating protein receptor (Homo sapiens) (Q04912 310-1400 limits assumed): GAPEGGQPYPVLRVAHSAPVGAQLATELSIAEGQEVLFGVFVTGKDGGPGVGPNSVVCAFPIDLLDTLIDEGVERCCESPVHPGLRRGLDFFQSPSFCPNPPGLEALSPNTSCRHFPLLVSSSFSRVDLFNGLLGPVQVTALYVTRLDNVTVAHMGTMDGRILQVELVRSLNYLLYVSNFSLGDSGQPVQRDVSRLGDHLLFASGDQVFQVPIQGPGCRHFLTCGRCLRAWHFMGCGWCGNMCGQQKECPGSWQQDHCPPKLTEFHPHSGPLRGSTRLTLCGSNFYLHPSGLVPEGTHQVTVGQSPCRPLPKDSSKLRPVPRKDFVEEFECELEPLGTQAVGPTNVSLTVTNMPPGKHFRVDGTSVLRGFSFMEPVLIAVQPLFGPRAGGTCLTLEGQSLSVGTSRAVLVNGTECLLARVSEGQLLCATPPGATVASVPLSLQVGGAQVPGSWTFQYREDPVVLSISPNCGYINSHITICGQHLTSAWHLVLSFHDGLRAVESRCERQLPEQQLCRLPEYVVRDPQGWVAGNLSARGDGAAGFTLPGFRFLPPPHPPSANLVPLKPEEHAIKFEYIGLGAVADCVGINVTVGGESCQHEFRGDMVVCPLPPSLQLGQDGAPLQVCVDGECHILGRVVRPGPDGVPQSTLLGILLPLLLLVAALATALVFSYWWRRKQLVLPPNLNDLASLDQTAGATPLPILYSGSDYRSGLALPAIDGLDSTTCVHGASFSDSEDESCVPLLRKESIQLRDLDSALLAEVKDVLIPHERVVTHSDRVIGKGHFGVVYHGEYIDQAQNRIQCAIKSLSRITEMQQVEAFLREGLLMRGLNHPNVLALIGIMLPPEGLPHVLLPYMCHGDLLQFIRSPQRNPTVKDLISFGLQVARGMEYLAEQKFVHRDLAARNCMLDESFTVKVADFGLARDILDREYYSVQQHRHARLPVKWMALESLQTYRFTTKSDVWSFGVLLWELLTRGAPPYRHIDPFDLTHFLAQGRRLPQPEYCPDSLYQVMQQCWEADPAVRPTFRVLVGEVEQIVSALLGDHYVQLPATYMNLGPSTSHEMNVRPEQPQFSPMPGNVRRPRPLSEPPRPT
Experiment [8] concerns the target Mast/stem cell growth factor receptor Kit (Homo sapiens) (UniProt P10721). Briefly: Inhibition of human cKIT at 10 uM.
In experiment [9] the target is Proto-oncogene tyrosine-protein kinase Src (Homo sapiens) (UniProt P12931). Briefly: Inhibition of human cSRC at 10 uM.
Experiment [10] can be described thus: Selectivity ratio of GI50 for human A375P cells to GI50 for human WM3629 cells. Format: functional.
For experiment [11], the target named is Mitogen-activated protein kinase 10 (Homo sapiens) (UniProt P53779). Briefly: Inhibition of human JNK3 at 10 uM.
The target of experiment [12] is Dual specificity mitogen-activated protein kinase kinase 1 (Homo sapiens) (UniProt Q02750). Briefly: Inhibition of human MEK1 at 10 uM.
Experiment [13] deals with Focal adhesion kinase 1 (Homo sapiens) (UniProt Q05397). Briefly: Inhibition of human FAK at 10 uM.
Experiment [14] deals with Mitogen-activated protein kinase 14 (Homo sapiens) (UniProt Q16539). Briefly: Inhibition of human MAPK14 at 10 uM.
Sequence of Mitogen-activated protein kinase 14 (Homo sapiens) (Q16539 whole entry): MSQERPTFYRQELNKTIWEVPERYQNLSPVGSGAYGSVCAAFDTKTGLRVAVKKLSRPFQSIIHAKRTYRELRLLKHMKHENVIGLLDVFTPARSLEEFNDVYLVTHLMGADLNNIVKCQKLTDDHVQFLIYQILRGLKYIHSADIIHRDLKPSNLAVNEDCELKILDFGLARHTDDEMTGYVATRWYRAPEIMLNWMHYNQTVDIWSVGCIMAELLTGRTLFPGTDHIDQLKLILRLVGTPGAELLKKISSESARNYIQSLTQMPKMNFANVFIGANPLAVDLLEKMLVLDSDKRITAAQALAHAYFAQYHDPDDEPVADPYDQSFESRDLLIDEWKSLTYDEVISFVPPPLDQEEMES
Experiment [15] concerns the target T1, Serine/threonine-protein kinase B-raf (Homo sapiens, UniProt P15056). As to conditions: 10 uM.
Description: Inhibition of human BRAF at 10 uM
In experiment [16] the target is Hepatocyte growth factor receptor (Homo sapiens) (UniProt P08581). Briefly: Inhibition of human cMET at 10 uM.
Experiment [17] addresses ALK tyrosine kinase receptor (Homo sapiens) (UniProt Q9UM73). Briefly: Inhibition of human ALK at 10 uM.
Experiment [18] deals with T2, RAF proto-oncogene serine/threonine-protein kinase (Homo sapiens, UniProt P04049). Briefly: Inhibition of CRAF (unknown origin).
T2 sequence (P04049 whole entry): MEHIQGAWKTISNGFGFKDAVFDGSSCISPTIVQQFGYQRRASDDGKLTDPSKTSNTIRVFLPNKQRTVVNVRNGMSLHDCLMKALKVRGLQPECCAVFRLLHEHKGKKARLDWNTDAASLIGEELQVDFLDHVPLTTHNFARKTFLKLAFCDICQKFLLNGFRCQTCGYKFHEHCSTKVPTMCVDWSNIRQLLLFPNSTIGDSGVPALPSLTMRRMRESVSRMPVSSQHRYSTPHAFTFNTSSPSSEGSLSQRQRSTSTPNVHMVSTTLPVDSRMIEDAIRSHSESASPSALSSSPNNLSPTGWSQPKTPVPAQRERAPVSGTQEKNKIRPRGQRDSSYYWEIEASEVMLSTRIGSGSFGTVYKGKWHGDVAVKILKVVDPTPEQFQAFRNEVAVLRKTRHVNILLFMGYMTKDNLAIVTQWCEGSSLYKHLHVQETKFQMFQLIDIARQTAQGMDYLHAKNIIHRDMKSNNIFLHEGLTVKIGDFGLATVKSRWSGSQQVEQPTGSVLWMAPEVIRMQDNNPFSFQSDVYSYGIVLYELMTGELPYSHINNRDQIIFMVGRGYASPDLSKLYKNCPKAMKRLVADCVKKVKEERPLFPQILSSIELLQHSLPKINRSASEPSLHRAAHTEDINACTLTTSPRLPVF
Experiment [19] has as its target Serine/threonine-protein kinase B-raf (Homo sapiens, UniProt P15056, V600E). Briefly: Inhibition of BRAF V599E mutant (unknown origin).
Experiment [20] has as its target Fibroblast growth factor receptor 3 (Homo sapiens) (UniProt P22607). Briefly: Inhibition of human FGFR3 at 10 uM.
Experiment [21] concerns the target Tyrosine-protein kinase Lyn (Homo sapiens) (UniProt P07948). Briefly: Inhibition of human LYN at 10 uM.
The target of experiment [22] is Tyrosine-protein kinase ABL1 (Homo sapiens) (UniProt P00519). Briefly: Inhibition of human ABL1 at 10 uM.
The target in experiment [23] is Epidermal growth factor receptor (Homo sapiens) (UniProt P00533). Briefly: Inhibition of human EGFR at 10 uM.
The target of experiment [24] is Mitogen-activated protein kinase 3 (Homo sapiens) (UniProt P27361). Briefly: Inhibition of human ERK1 at 10 uM.
Sequence of Mitogen-activated protein kinase 3 (Homo sapiens) (P27361 whole entry): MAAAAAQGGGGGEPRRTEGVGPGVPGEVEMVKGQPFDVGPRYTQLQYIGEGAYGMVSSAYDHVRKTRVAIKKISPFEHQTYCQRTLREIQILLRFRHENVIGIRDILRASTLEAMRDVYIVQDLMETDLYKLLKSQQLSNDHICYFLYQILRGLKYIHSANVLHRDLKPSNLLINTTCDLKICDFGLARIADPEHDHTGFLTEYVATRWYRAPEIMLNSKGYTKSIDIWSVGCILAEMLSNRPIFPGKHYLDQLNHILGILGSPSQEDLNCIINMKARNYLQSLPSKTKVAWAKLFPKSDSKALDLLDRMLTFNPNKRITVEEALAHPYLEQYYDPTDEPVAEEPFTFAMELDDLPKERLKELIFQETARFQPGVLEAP
For experiment [25], the target named is Insulin-like growth factor 1 receptor (Homo sapiens) (UniProt P08069). Briefly: Inhibition of human IGF1R at 10 uM.
Experiment [26] deals with Cyclin-dependent kinase 2/cyclin E1 (Homo sapiens) (UniProt P24864+P24941). Briefly: Inhibition of human CDK2/cyclin E at 10 uM. In kind it is protein-complex assay.
Experiment [27] deals with Tyrosine-protein kinase Lck (Homo sapiens) (UniProt P06239). Briefly: Inhibition of human LCK at 10 uM.
The target in experiment [28] is Fibroblast growth factor receptor 2 (Homo sapiens) (UniProt P21802). Briefly: Inhibition of human FGFR2 at 10 uM.
Experiment [29] deals with Tyrosine-protein kinase JAK3 (Homo sapiens) (UniProt P52333). Briefly: Inhibition of human JAK3 at 10 uM.
The target of experiment [30] is Serine/threonine-protein kinase mTOR (Homo sapiens) (UniProt P42345). Briefly: Inhibition of human mTOR at 10 uM.
The subject of experiment [31] is Serine/threonine-protein kinase B-raf (Homo sapiens), P15056 [V600E]. As to conditions: 10 uM.
Description: Inhibition of human BRAF V599E mutant at 10 uM
Experiment [32] has as its target Serine/threonine-protein kinase PLK1 (Homo sapiens) (UniProt P53350). Briefly: Inhibition of human PLK1 at 10 uM.
Experiment [33] deals with T2, RAF proto-oncogene serine/threonine-protein kinase. To be noted: 10 uM.
Description: Inhibition of human RAF1 at 10 uM
For experiment [34], the target named is Glycogen synthase kinase-3 beta (Homo sapiens) (UniProt P49841). Briefly: Inhibition of human GSK3beta at 10 uM.
For experiment [35], the target named is Tyrosine-protein kinase SYK (Homo sapiens) (UniProt P43405). Briefly: Inhibition of human SYK at 10 uM.
The target of experiment [36] is T1, Serine/threonine-protein kinase B-raf. Briefly: Inhibition of BRAF (unknown origin).
Experiment [37] concerns the target Cyclin-dependent kinase 1/cyclin B1 (Homo sapiens) (UniProt P06493+P14635). Briefly: Inhibition of human CDK1/cyclin B at 10 uM. In kind it is protein-complex assay.
Experiment [38] has as its target Proto-oncogene tyrosine-protein kinase ROS (Homo sapiens) (UniProt P08922). Briefly: Inhibition of human ROS1 at 10 uM.
The species named for another experiment is Homo sapiens. Briefly: Inhibition of human PKA at 10 uM.
Experiment [39] has as its target Receptor-type tyrosine-protein kinase FLT3 (Homo sapiens) (UniProt P36888). Briefly: Inhibition of human FLT3 at 10 uM.

Bounds are passed on as bounds.

What is called GI50 is the concentration giving 50% growth inhibition. Read a low GI50 as more potent growth inhibition. By inhibition is commonly meant the relative decrease from the control value, in per cent. By IC50 is commonly meant the concentration needed to halve the response being measured. High values mean weaker potency, low ones greater potency.

T1 sequence (P15056 whole entry): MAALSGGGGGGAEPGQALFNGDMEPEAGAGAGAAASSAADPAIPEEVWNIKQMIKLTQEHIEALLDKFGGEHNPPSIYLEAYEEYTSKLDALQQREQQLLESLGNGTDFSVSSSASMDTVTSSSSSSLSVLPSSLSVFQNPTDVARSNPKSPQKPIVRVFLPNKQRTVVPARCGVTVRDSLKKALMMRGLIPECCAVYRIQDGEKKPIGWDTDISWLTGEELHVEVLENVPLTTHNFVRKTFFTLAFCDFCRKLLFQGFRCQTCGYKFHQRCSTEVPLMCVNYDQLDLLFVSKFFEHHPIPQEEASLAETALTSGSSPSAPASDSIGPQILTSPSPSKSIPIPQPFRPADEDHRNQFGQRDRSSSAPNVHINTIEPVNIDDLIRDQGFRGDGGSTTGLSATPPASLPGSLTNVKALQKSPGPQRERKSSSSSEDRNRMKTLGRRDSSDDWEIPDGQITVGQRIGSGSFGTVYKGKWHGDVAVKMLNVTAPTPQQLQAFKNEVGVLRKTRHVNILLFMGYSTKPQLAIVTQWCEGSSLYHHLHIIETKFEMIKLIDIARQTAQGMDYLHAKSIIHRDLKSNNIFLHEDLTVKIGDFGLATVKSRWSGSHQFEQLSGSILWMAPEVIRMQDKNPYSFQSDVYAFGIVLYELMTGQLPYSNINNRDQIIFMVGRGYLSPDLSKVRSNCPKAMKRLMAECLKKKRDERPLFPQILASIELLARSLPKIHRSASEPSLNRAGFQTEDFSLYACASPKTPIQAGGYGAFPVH
Sequence of Receptor-type tyrosine-protein kinase FLT3 (Homo sapiens) (P36888 whole entry): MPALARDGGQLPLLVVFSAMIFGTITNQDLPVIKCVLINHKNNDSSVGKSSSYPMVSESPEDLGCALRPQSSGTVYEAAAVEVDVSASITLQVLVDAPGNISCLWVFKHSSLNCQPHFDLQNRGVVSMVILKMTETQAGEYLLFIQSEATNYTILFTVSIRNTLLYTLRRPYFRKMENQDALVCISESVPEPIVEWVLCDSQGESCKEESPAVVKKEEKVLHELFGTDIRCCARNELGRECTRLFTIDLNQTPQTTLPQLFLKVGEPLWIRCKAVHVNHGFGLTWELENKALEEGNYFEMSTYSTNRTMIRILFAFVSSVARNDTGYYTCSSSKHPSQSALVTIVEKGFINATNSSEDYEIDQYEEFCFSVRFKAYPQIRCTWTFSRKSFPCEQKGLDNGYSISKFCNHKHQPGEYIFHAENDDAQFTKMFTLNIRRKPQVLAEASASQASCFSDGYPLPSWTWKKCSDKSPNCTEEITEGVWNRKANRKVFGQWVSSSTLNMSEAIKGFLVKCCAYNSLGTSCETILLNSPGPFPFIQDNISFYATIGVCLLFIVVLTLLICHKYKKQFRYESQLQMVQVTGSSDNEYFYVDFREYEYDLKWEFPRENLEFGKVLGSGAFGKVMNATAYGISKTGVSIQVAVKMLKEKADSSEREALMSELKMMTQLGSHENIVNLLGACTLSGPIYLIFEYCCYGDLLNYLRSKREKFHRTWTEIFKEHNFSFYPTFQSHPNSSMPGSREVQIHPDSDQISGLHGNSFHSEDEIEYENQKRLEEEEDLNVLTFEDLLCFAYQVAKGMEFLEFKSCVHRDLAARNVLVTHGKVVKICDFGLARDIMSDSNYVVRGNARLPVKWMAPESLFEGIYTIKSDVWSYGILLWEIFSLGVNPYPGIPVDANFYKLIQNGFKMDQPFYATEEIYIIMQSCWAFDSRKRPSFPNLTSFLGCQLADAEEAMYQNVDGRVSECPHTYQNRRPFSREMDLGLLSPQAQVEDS
Sequence of Tyrosine-protein kinase Lyn (Homo sapiens) (P07948 2-512 limits assumed): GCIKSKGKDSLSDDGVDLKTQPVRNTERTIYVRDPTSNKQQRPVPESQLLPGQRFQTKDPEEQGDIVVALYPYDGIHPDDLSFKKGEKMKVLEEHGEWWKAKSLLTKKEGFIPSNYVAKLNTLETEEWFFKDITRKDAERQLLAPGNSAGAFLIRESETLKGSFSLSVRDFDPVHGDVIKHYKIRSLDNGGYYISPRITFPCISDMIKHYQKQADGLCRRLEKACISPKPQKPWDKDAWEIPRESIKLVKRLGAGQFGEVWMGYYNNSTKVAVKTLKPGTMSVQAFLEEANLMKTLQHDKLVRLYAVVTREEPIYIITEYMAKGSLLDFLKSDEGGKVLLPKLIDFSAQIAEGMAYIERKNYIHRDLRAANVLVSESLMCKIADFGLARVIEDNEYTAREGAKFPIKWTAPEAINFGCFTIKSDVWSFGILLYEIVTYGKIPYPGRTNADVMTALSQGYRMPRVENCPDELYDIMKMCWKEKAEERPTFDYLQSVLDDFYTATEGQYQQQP

In the case of `C[C@H](NC(=O)c1[nH]nc2cc(NC(=O)c3cccc(C(C)(C)C#N)c3)ccc12)C(N)=O`, the GI50 in experiment [1] and in experiment [2] was > 30 µM each time.

As for `C[C@H](NC(=O)c1[nH]nc2cc(NC(=O)c3ccc(Cl)c(C(F)(F)F)c3)ccc12)C(N)=O`, the values for the GI50 in experiment [1] and in experiment [2] were 10.5 µM and 9.13 µM, respectively.

On to `C[C@H](NC(=O)c1[nH]nc2cc(NC(=O)Nc3ccc(N4CCOCC4)cc3)ccc12)C(N)=O`, for which the GI50 in [1] is 12.3 µM; in experiment [2] it was 9.29 µM.

Consider `C[C@H](NC(=O)c1[nH]nc2cc(NC(=O)c3cc4ccccc4s3)ccc12)C(N)=O`, for which the GI50 is 28.2 µM in experiment [1] and > 30 µM in [2].

For `Cc1cncn1-c1cc(C(=O)Nc2cccc(CNc3ccc4c(C(=O)N[C@@H](C)C(N)=O)[nH]nc4c3)c2)cc(C(F)(F)F)c1`, the inhibition turned out to be 4.99% in [3]; 10.6% in experiment [4]; 7.08% in experiment [5]; 0% in [6]; 0.7% in experiment [7]; 22.2% in experiment [8]. In addition, the inhibition in experiment [9] worked out at 0%; in [11] it was 0%; in [12], 0%; in experiment [13], 8.88%; in [14], 11.4%; in experiment [15], 21.1%. The inhibition in [16] was 9.84%; in experiment [17], 0%; in experiment [20] it was 14.9%; in experiment [21], 5.4%; in experiment [22], 2.44%; in experiment [23], 0%. Also, the inhibition in experiment [24] turned out to be 4.2%; in experiment [25], 0%; in experiment [26], 3.1%; in experiment [27], 7.62%; in experiment [28], 9.75%; in experiment [29] it was 0%. Further, the inhibition is 0% in experiment [30]; 19.5% in [31]; 9.04% in experiment [32]; 99.4% in [33]; 12.3% in experiment [34]; 2.89% in [35]. Further, the inhibition in experiment [37] is 8.36%; in experiment [38], 1.49%; in the experiment filed under Homo sapiens, 0%; in [39], 1.16%. Further, the GI50 in experiment [1] was 15.9 µM; in experiment [2], 0.65 µM. Besides, the RatioGI50 in [10] was 25. Further, the IC50 in [18] was found to be 38.6 µM; in [19], 7.82 µM; in experiment [36], 9.45 µM.

As to `COc1cccc(CNc2ccc3c(C(=O)N[C@@H](C)C(N)=O)[nH]nc3c2)c1`, the GI50 amounted to 17.8 µM in experiment [1] and 7.19 µM in [2].

With `C[C@H](NC(=O)c1[nH]nc2cc(NCc3cccc(NC(=O)c4cnccn4)c3)ccc12)C(N)=O`, the GI50 amounted to 19.2 µM in experiment [1] and 7.86 µM in experiment [2].

As to `C[C@H](NC(=O)c1[nH]nc2cc(NC(=O)c3ccccc3)ccc12)C(N)=O`, the 50% growth inhibitory concentration (GI50) in [1] and in [2] was > 30 µM each time.

Regarding `C[C@H](NC(=O)c1[nH]nc2cc(NCc3cccc(NC(=O)c4cc(N5CCOCC5)cc(C(F)(F)F)c4)c3)ccc12)C(N)=O`, the concentration for 50% growth inhibition (GI50) was determined as 25.6 µM in experiment [1] and 2.25 µM in [2].

For `C[C@H](NC(=O)c1[nH]nc2cc(NCc3ccc(F)cc3)ccc12)C(N)=O`, the GI50 in experiment [1] came out at 10.1 µM; in [2] it was 9.05 µM.

For `C[C@H](NC(=O)c1[nH]nc2cc(NC(=O)c3ccc4ncccc4c3)ccc12)C(N)=O`, the GI50 in [1] and in experiment [2] was > 30 µM throughout.

Regarding `C[C@H](NC(=O)c1[nH]nc2cc(NC(=O)Nc3ccc(C(F)(F)F)c(N4CCOCC4)c3)ccc12)C(N)=O`, the GI50 worked out at 10.1 µM in experiment [1] and 3.51 µM in [2].

On to `C[C@H](NC(=O)c1[nH]nc2cc(NC(=O)c3cc(N4CCOCC4)cc(C(F)(F)F)c3)ccc12)C(N)=O`, for which the GI50 in experiment [1] and in [2] was > 30 µM in each case.

In the case of `CNC(=O)c1cc(Oc2ccc(NC(=O)Nc3ccc(Cl)c(C(F)(F)F)c3)cc2)ccn1` [SORAFENIB], the results for the GI50 in experiment [1] and in experiment [2] were 2.58 µM and 0.78 µM, respectively.

Consider `C[C@H](NC(=O)c1[nH]nc2cc(NC(=O)c3ccc(C(F)(F)F)c(N4CCOCC4)c3)ccc12)C(N)=O`, for which the GI50 in [1] was 28.3 µM; in [2], 7.37 µM.

Consider `COc1ccc(-c2ccc(C(=O)Nc3ccc4c(C(=O)N[C@@H](C)C(N)=O)[nH]nc4c3)o2)cc1`, for which the figures for the GI50 in [1] and in [2] were 19.2 µM and 7.86 µM, respectively.

Regarding `Cc1cncn1-c1cc(C(=O)Nc2ccc3c(C(=O)N[C@@H](C)C(N)=O)[nH]nc3c2)cc(C(F)(F)F)c1`, the 50% growth inhibitory concentration (GI50) in experiment [1] amounted to 7.19 µM; in experiment [2] it was 12.9 µM.

On to `C[C@H](NC(=O)c1[nH]nc2cc(NC(=O)Nc3cccc(C(F)(F)F)c3)ccc12)C(N)=O`, for which the results for the GI50 in experiment [1] and in experiment [2] were 8.41 µM and 6.43 µM, respectively.

`C[C@H](NC(=O)c1[nH]nc2cc(NC(=O)Nc3ccc(Cl)c(C(F)(F)F)c3)ccc12)C(N)=O`: the GI50 in experiment [1] was determined as 8.58 µM; in experiment [2], 6.59 µM.

`C[C@H](NC(=O)c1[nH]nc2cc(NC(=O)C(c3ccccc3)c3ccccc3)ccc12)C(N)=O`: the GI50 in experiment [1] and in experiment [2] was > 30 µM in each case.

For the molecule `C[C@H](NC(=O)c1[nH]nc2cc(NC(=O)c3cccc(C(F)(F)F)c3)ccc12)C(N)=O`, the GI50 in experiment [1] and in [2] was > 30 µM each time.

Consider `C[C@H](NC(=O)c1[nH]nc2cc(NCc3cccc(NC(=O)c4ccc(Cl)c(C(F)(F)F)c4)c3)ccc12)C(N)=O`, for which the GI50 in experiment [1] worked out at 7.19 µM; in experiment [2], 4.54 µM.

Regarding `C[C@H](NC(=O)c1[nH]nc2cc(NCc3cccc(NC(=O)c4cccc(C(C)(C)C#N)c4)c3)ccc12)C(N)=O`, the figures for the GI50 in experiment [1] and in experiment [2] were 28.3 µM and 7.37 µM, respectively.

Consider `COc1ccc(-n2ncc(C(=O)Nc3ccc4c(C(=O)N[C@@H](C)C(N)=O)[nH]nc4c3)c2C(F)(F)F)cc1`, for which the concentration for 50% growth inhibition (GI50) is 24.6 µM in experiment [1] and 3.28 µM in experiment [2].
